Common to all, as to experiment: Cell growth inhibition, CellTiter-Glo, 72 h
Assay type in all cases: cell-based

One assay relates to 22RV1 cells. Particulars: Homo sapiens, 72 h culture, mean of N=2. The procedure:
(§1) 22RV1, vCap, MM1S and OPM-2 cells were cultured in RPMI-1640 medium (10% fetal bovine serum and 100 units of penicillin/streptomycin dual-antibody per mL were added to RPMI-1640) in a cell incubator at 37°C with 5% CO2, respectively. Cells in logarithmic growth phase were seeded into 96-well cell culture plates at 5×10^3 cells/100 µL/well and cultured overnight. Active compounds dissolved in DMSO at different concentrations were added with a final concentration of 0.5% DMSO. 1% Tween 20 was used as positive control and 0.5% DMSO was used as negative control. After 72 h of culture, an equal volume of CellTiter-Glo was added to each well, mixed by shaking for 2 min, and left standing at room temperature for 10 min. […] signal values were read with a microplate reader. Data were analyzed and graphs were generated using Prism 7.0. The values shown are mean ± SEM (N=2). […] The formula for inhibition rate is as follows: % Inhibition = (Icompound−IZPE)/(IHPE−IZPE) × 100 [formula]
(§2) The X-axis is compound concentration (nM), and the Y-axis is % Inhibition.

For a further assay, the system named is MM1S cells. Particulars: Homo sapiens, MM1.S, 72 h culture, mean of N=2. Here is the method:
as §1, §2

The subject of another assay is vCap cells. Particulars: Homo sapiens, 72 h culture, mean of N=2. Here is the method:
as §1, §2

Molecules are shown by their SMILES.

Experimental findings from patent EP4813980A1, “EP300/CBP REGULATOR, AND PREPARATION METHOD THEREFOR AND USE THEREOF” (Miracure Biotechnology Limited, priority 2023, dated 2025) are described below.

Consider `CNC(=O)N1CCc2cc(C3CCN(CCc4ccc(COc5cccc6c5CN(C5CCC(=O)NC5=O)C6=O)cc4)CC3)cc(N3CCCc4cc(-c5cnn(C)c5)c(C(F)F)cc43)c2C1` (stereo not drawn) [Compound 2066, 8-(7-(difluoromethyl)-6-(1-methyl-1H-pyrazol-4-yl)-3,4-dihydroquinolin-1(2H)-yl)-6-(1-(4-(((2-(2,6-dioxopiperidin-3-yl)-1-oxoisoindolin-4-yl)oxy)methyl)phenylethyl)piperidin-4-yl)-N-methyl-3,4-dihydroisoquinoline-2(1H)-carboxamide], for which the IC50 came to 0.08 nM in the assay on 22RV1 cells and 0.23 nM in the assay on MM1S cells.

As for `CC(=O)N1Cc2cc(C3CCN(CCN4CCN(c5ccc6c(c5)CN(C5CCC(=O)NC5=O)C6=O)CC4)CC3)cc(N3CCCc4cc(-c5cnn(C)c5)c(C(F)F)cc43)c2C1` (stereo not drawn) [Compound 2070], the results for the IC50 with 22RV1 cells and in the assay with MM1S cells were 0.42 nM and 0.34 nM, respectively.

For the molecule `CNC(=O)N1CCc2cc(C3CCN(CC4CCN(CCOc5cccc6c5CN(C5CCC(=O)NC5=O)C6=O)CC4)CC3)cc(N3CCCc4cc(-c5cnn(C)c5)c(C(F)F)cc43)c2C1` (stereo not drawn) [Compound 2065], the IC50 was 0.41 nM in the assay with 22RV1 cells and 0.28 nM in the assay on MM1S cells.

Turning to `CC(=O)n1cc2cc(C3CCN(C(=O)CCCCCCOc4ccc5c(c4)n(C)c(=O)n5C4CCC(=O)NC4=O)CC3)cc(N3CCCc4cc(-c5cnn(C)c5)c(C(F)F)cc43)c2c1` (stereo not drawn) [Compound 2029, 3-(5-((7-(4-(2-acetyl-7-(7-(difluoromethyl)-6-(1-methyl-1H-pyrazol-4-yl)-3,4-dihydroquinolin-1(2H)-yl)isoindol-5-yl)piperidin-1-yl)-7-oxoheptyl)oxy)-3-methyl-2-oxo-2,3-dihydro-1H-benzo[d]imidazol-1-yl)piperidine-2,6-dione], the results for the IC50 in the assay on 22RV1 cells and with vCap cells were 0.04 nM and 0.03 nM, respectively.

In the case of `CC(=O)N1Cc2cc(C3CCN(CCN4CCC(CNc5cccc6c5C(=O)N(C5CCC(=O)NC5=O)C6=O)CC4)CC3)cc(N3CCCc4cc(-c5cnn(C)c5)c(C(F)F)cc43)c2C1` (stereo not drawn) [Compound 2019], the half-inhibitory concentration (IC50) worked out at 2.43 nM in the assay with 22RV1 cells and 1.25 nM in the assay with vCap cells.

Turning to `CNC(=O)N1CCc2cc(C3CCN(C(=O)CCCCCCCNc4ccc5c(c4)n(C)c(=O)n5C4CCC(=O)NC4=O)CC3)cc(N3CCCc4cc(-c5cnn(C)c5)c(C(F)F)cc43)c2C1` (stereo not drawn) [Compound 2013], the figures for the concentration for half-maximal inhibition (IC50) in the assay with 22RV1 cells and in the assay with vCap cells were 0.01 nM and 0.449 nM, respectively.

Regarding `CC(=O)N1Cc2cc(C3CCN(Cc4ccc(COc5cccc6c5CN(C5CCC(=O)N(COC(=O)CN)C5=O)C6=O)cc4)CC3)cc(N3CCCc4cc(-c5cnn(C)c5)c(C(F)F)cc43)c2C1` (stereo not drawn) [Compound 2064, (3-(4-((4-((2-acetyl-7-(7-(difluoromethyl)-6-(1-methyl-1H-pyrazol-4-yl)-3,4-dihydroquinolin-1(2H)-yl)isoindol-5-yl)piperidin-1-yl)methyl)benzyl)oxy)-1-oxoisoindolin-2-yl)-2,6-dioxopiperidin-1-yl)methyl glycinate], the IC50 is 0.23 nM in the assay on 22RV1 cells and 0.35 nM in the assay with vCap cells.

As for `CNC(=O)N1CCc2cc(C3CCN(Cc4ccc(CCOc5cccc6c5CN(C5CCC(=O)NC5=O)C6=O)cc4)CC3)cc(N3CCCc4cc(-c5cnn(C)c5)c(C(F)F)cc43)c2C1` (stereo not drawn) [Compound 2012], the figures for the IC50 in the assay with 22RV1 cells and in the assay with vCap cells were 0.62 nM and 2.31 nM, respectively.

`COC(=O)N1Cc2cc(C3CCN(C(=O)CCOCCOCCOCCOCCNc4ccc5c(c4)C(=O)N(C4CCC(=O)NC4=O)C5=O)CC3)cc(N3CCCc4cc(-c5cnn(C)c5)c(C(F)F)cc43)c2C1` (stereo not drawn) [Compound 2024]: the figures for the IC50 in the assay on 22RV1 cells and with vCap cells were 3850 nM and 4610 nM, respectively.

For `CC(=O)N1Cc2cc(C3CCN(C(=O)CCCCCCNc4cccc5c4n(C)c(=O)n5C4CCC(=O)NC4=O)CC3)cc(N3CCCc4cc(-c5cnn(C)c5)c(C(F)F)cc43)c2C1` (stereo not drawn) [Compound 2007], the concentration for half-maximal inhibition (IC50) stood at 0.04 nM in the assay on 22RV1 cells and 0.01 nM in the assay with vCap cells.

Regarding `CC(=O)N1Cc2cc(C3CCN(CC4CCN(CCCc5cccc6c5C(=O)N(C5CCC(=O)NC5=O)C6=O)CC4)CC3)cc(N3CCCc4cc(-c5cnn(C)c5)c(C(F)F)cc43)c2C1` (stereo not drawn) [Compound 2020], the concentration for half-maximal inhibition (IC50) in the assay with 22RV1 cells came to 1.87 nM; in the assay on vCap cells, 0.53 nM.

Regarding `CC(=O)N1Cc2cc(C3CCOCC3)cc(-c3cccc4cc(-c5ccc(C(=O)N6CCC(Nc7cccc8c7C(=O)N(C7CCC(=O)NC7=O)C8=O)CC6)nc5)ncc34)c2C1` (stereo not drawn) [Compound 2074, 4-((1-(5-(8-(2-acetyl-6-(tetrahydro-2H-pyran-4-yl)isoindolin-4-yl)isoquinolin-3-yl)pyridinecarbonyl)piperidin-4-yl)amino)-2-(2,6-dioxopiperidin-3-yl)isoindoline-1,3-dione], the IC50 was above 10000 nM in the assay with 22RV1 cells and 426 nM in the assay with MM1S cells.

Turning to `CC(=O)N1Cc2cc(C3CCN(CCN4CCC(COc5ccc6c(c5)CN(C5CCC(=O)NC5=O)C6=O)CC4)CC3)cc(N3CCCc4cc(-c5cnn(C)c5)c(C(F)F)cc43)c2C1` (stereo not drawn) [Compound 2071], the values for the half-inhibitory concentration (IC50) with 22RV1 cells and in the assay on MM1S cells were 0.5 nM and 0.31 nM, respectively.

As to `CC(=O)N1Cc2cc(C3CCN(Cc4ccc(COc5cccc6c5CN(C5CCC(=O)N(CO)C5=O)C6=O)cc4)CC3)cc(N3CCCc4cc(-c5cnn(C)c5)c(C(F)F)cc43)c2C1` (stereo not drawn) [Compound 2053], the half-maximal inhibitory concentration (IC50) with 22RV1 cells was 1.02 nM; in the assay on vCap cells, 0.36 nM.

For the molecule `CC(=O)N1Cc2cc(C3CCN(Cc4ccc(CCOc5cccc6c5CN(C5CCC(=O)NC5=O)C6=O)cc4)CC3)cc(N3CCCc4cc(-c5cnn(C)c5)c(C(F)F)cc43)c2C1` (stereo not drawn) [Compound 2003], the IC50 in the assay with 22RV1 cells was found to be 0.69 nM; with vCap cells, 0.19 nM.

With `CNC(=O)N1CCc2cc(C3CCN(C(=O)CCCCCCNc4ccc5c(c4)n(C)c(=O)n5C4CCC(=O)NC4=O)CC3)cc(N3CCCc4cc(-c5cnn(C)c5)c(C(F)F)cc43)c2C1` (stereo not drawn) [Compound 2028, 8-[7-(difluoromethyl)-6-(1-methylpyrazol-4-yl)-3,4-dihydro-2H-quinolin-1-yl]-6-[1-[7-[[1-(2,6-dioxo-3-piperidinyl)-3-methyl-2-oxo-benzimidazol-5-yl]amino]heptanoyl]-4-piperidinyl]-N-methyl-3,4-dihydro-1H-isoquinoline-2-carboxamide], the half-maximal inhibitory concentration (IC50) amounted to 0.1 nM in the assay on 22RV1 cells and 0.26 nM in the assay on vCap cells.

With `CNC(=O)N1CCc2cc(C3CCN(CCN4CCC(CNc5cccc6c5C(=O)N(C5CCC(=O)NC5=O)C6=O)CC4)CC3)cc(N3CCCc4cc(-c5cnn(C)c5)c(C(F)F)cc43)c2C1` (stereo not drawn) [Compound 2021], the IC50 in the assay on 22RV1 cells was 0.5 nM; in the assay on vCap cells it was 0.545 nM.

For the molecule `CC(=O)N1Cc2cc(C3CCN(C(=O)CCCCCCNc4ccc5c(c4)n(C)c(=O)n5C4CCC(=O)NC4=O)CC3)cc(N3CCCc4cc(-c5cnn(C)c5)c(C(F)F)cc43)c2C1` (stereo not drawn) [Compound 2027], the half-inhibitory concentration (IC50) in the assay with 22RV1 cells amounted to 0.04 nM; with vCap cells, 0.01 nM.

Take `CC(=O)N1Cc2cc(C3CCN(CCc4ccc(COc5cccc6c5CN(C5CCC(=O)NC5=O)C6=O)cc4)CC3)cc(N3CCCc4cc(-c5cnn(C)c5)c(C(F)F)cc43)c2C1` (stereo not drawn) [Compound 2031]: the results for the IC50 in the assay on 22RV1 cells and in the assay on vCap cells were 0.04 nM and 0.21 nM, respectively.

For the molecule `CC(=O)N1Cc2cc(C3CCN(CCN4CCC(CNc5ccc6c(c5)CN(C5CCC(=O)NC5=O)C6=O)CC4)CC3)cc(N3CCCc4cc(-c5cnn(C)c5)c(C(F)F)cc43)c2C1` (stereo not drawn) [Compound 2063], the results for the IC50 in the assay with 22RV1 cells and in the assay with MM1S cells were 0.33 nM and 0.28 nM, respectively.

In the case of `CC(=O)n1cc2cc(C3CCN(C(=O)CCCCCCCNc4ccc5c(c4)n(C)c(=O)n5C4CCC(=O)NC4=O)CC3)cc(N3CCCc4cc(-c5cnn(C)c5)c(C(F)F)cc43)c2c1` (stereo not drawn) [Compound 2004, 3-[5-[[8-[4-[2-acetyl-7-[7-(difluoromethyl)-6-(1-methylpyrazol-4-yl)-3,4-dihydro-2H-quinolin-1-yl]isoindol-5-yl]piperidin-1-yl]-8-oxooctyl]amino]-3-methyl-2-oxobenzoimidazol-1-yl]piperidine-2,6-dione], the values for the half-maximal inhibitory concentration (IC50) in the assay on 22RV1 cells and in the assay on vCap cells were 0.03 nM and 0.12 nM, respectively.

With `CC(=O)n1cc2cc(C3CCN(C(=O)CN4CCC(C#Cc5cccc6c5n(C)c(=O)n6C5CCC(=O)NC5=O)CC4)CC3)cc(N3CCCc4cc(-c5cnn(C)c5)c(C(F)F)cc43)c2c1` (stereo not drawn) [Compound 2048, 3-(4-((1-(2-(4-(2-acetyl-7-(7-(difluoromethyl)-6-(1-methyl-1H-pyrazol-4-yl)-3,4-dihydroquinolin-1(2H)-yl)isoindol-5-yl)piperidin-1-yl)-2-oxoethyl)piperidin-4-yl)ethynyl)-3-methyl-2-oxo-2,3-dihydro-1H-benzo[d]imidazol-1-yl)piperidine-2,6-dione], the concentration for half-maximal inhibition (IC50) came to 1.84 nM in the assay with 22RV1 cells and 1.85 nM in the assay with vCap cells.

`CC(=O)N1Cc2cc(C3CCN(CCN4CCC(COc5cccc6c5CN(C5CCC(=O)NC5=O)C6=O)CC4)CC3)cc(N3CCCc4cc(-c5cnn(C)c5)c(C(F)F)cc43)c2C1` (stereo not drawn) [Compound 2055]: the figures for the IC50 with 22RV1 cells and with vCap cells were 0.54 nM and 0.26 nM, respectively.

On to `CNC(=O)N1CCc2cc(C3CCN(C(=O)CCCCCCNc4cccc5c4n(C)c(=O)n5C4CCC(=O)NC4=O)CC3)cc(N3CCCc4cc(-c5cnn(C)c5)c(C(F)F)cc43)c2C1` (stereo not drawn) [Compound 2016, 8-[7-(difluoromethyl)-6-(1-methylpyrazol-4-yl)-3,4-dihydro-2H-quinolin-1-yl)-6-[1-[7-[[1-(2,6-dioxo-3-piperidinyl)-3-methyl-2-oxobenzoimidazol-4-yl]amino]heptanoyl]-4-piperidinyl]-N-methyl-3,4-dihydro-1H-isoquinoline-2-carboxamide], for which the values for the 50% inhibitory concentration (IC50) in the assay on 22RV1 cells and in the assay on vCap cells were 0.01 nM and below 0.005 nM, respectively.
